This is an account of results in patent US8344118B2, “Preparation and isolation of 5′ capped MRNA” (Applied Biosystems, LLC, priority 2007, dated 2013).

Assay [1] deals with T7 RNA polymerase (Escherichia phage T7, UniProt P00573). The settings on record: linearized pTri β actin vector template, 37° C. for 2 hr, 20% dPAGE gel, FIG. 9.
Experimental: A Gel Shift assay was performed by using the MAXIscript™ kit (Ambion, Inc.) following the manufacturer's protocol. The assay determines if the modified cap analogs were substrates for T7 RNA polymerase. Typical 20 μL of T7 RNA polymerase transcriptions contained the following reagents at the final concentrations indicated: linearized pTri β actin vector template, 0.5 μg; ATP, 2 mmol; GTP, 0.4 mmol; 1.6 mmol each CTP and UTP, in a separate reaction; 10× reaction buffer, 4×; T7 RNA polymerase, 50 units/μL; (α-^32P) ATP, 800 (Ci/mmol); and DEPC water. The control reaction was a normal in vitro transcription reaction, in which no cap analog was added. The transcription reactions were incubated at 37° C. for 2 hr, after which the reaction mixtures were then applied to a 20% dPAGE gel. The assay detects specific structure or size changes described as gel shifts. When structure change or size change occurs it creates complexes that migrate slower during gel electrophoresis than the original complex.
The test system of assay [2] is phage RNA polymerase such as T7, T3 or SP6. Particulars: m^7GpppG to GTP (4:1); cited from earlier work.

T7 RNA polymerase, sequence (P00573 whole entry): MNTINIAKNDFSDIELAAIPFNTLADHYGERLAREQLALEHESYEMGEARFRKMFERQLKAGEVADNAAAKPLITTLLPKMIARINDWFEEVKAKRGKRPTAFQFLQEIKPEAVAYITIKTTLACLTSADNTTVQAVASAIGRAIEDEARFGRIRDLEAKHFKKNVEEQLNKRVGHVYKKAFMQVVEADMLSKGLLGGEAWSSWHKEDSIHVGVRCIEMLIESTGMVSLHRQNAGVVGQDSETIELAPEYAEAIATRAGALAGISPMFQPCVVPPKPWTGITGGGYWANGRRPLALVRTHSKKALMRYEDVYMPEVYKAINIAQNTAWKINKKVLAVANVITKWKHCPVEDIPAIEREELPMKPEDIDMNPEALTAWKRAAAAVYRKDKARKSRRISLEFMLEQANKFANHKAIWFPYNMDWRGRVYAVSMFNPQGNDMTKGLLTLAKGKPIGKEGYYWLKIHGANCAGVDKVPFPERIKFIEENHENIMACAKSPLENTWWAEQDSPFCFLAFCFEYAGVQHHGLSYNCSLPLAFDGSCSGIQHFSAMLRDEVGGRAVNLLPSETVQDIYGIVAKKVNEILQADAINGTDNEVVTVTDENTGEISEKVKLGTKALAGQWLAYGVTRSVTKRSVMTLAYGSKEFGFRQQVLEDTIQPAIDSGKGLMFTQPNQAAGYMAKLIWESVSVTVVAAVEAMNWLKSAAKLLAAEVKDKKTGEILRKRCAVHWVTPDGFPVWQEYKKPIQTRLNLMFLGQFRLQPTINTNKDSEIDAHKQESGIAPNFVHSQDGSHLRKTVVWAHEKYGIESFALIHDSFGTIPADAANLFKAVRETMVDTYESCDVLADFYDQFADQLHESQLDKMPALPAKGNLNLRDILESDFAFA

`NCC=Cc1cn(C2OC(COP(=O)(O)OP(=O)(O)OP(=O)(O)OP(=O)(O)OCC3OC(n4cnc5c(=O)[nH]c(N)nc54)C(O)C3O)C(O)C2O)c(=O)[nH]c1=O` (centres unmarked) [Compound 1, G[5′]pppp[5′]U-Aminoallyl]: the “capped RNA” value in assay [1] was “about 65%”.

Take `Cn1c[n+]([C@@H]2O[C@H](COP(=O)(O)OP(=O)(O)OP(=O)(O)OC[C@H]3O[C@@H](n4cnc5c(=O)[nH]c(N)nc54)[C@H](O)[C@@H]3O)[C@@H](O)[C@H]2O)c2nc(N)[nH]c(=O)c21` [m^7GpppG, m^7G(5′)ppp(5′)G]: the “capped RNA” value in assay [2] is 80%.
